Results reported in patent US20220193209A1, “COMPOSITIONS AND METHODS FOR REACTIVATING LATENT IMMUNODEFICIENCY VIRUS AND/OR TREATING IMMUNODEFICIENCY VIRUS INFECTION” (The J. David Gladstone institutes, a testamentary trust …, priority 2019, published 2022).

What was measured:
[1] = system: ATF4; assay: Western blot of ATF4 protein in CD4+ T cells; assay type: cell-based, human; details: multiple donors
Protocol: Cells were lysed in radioimmunoprecipitation assay buffer (50 mM Tris-HCl, pH 8, 150 mM NaCl, 1% NP-40, 0.5% sodium deoxycholate, and 0.1% SDS, supplemented with protease inhibitor cocktail; Sigma-Aldrich) for 30 min at 4° C. Samples were resuspended in Laemmli buffer for SDS-PAGE. For chemiluminescent detection, enhanced luminol-based chemiluminescent substrate (ECL) and ECL Hyperfilm (Amersham) were used.
The RNA-Seq results were validated by measuring read counts of the selected genes representative of different pathways (FIG. 8, Panel D) as well as by Real-Time Quantitative PCR (RT-qPCR) (FIG. 7, Panel C). […] Upstream regulator analysis identified TRIB3 and ATF4 as the top regulators of AS1842856-induced gene changes (FIG. 7, Panel D).
FIG. 7, Panels A-E, depict marked upregulation of the regulator ATF4 in response to FOXO1 inhibition in primary CD4^+ T cells. FIG. 7, Panel A depicts a volcano plot from the RNA-Seq data comparing CD4^+ T cells treated with 1000 nM AS1842856 versus DMSO control for 48 h. […] FIG. 7, Panel D, depicts analysis of the five top upstream regulators and table with their activation z-scores according to the RNA-Seq data. FIG. 7, Panel E depicts a representative blot of protein expression of dysregulated genes of interest (left) and densitometry analysis (right) was performed from three individual donors.

[2] = system: latent HIVNL4-3 Luciferase reporter virus in primary CD4+ T cells; assay: Luciferase reporter HIV reactivation in primary CD4+ T cells; assay type: cell-based, HIV-1; details: 6 days after infection, increasing concentrations
Protocol: For reactivation of latent HIV-1 provirus, cells were counted and collected as pellets by centrifugation at 1500 rpm for 10 min. Cells were then plated in 96-well U-bottom plates at 1×10^6 per 200 μl in the presence of 30 μM Raltegravir (Santa Cruz Biotechnology) and the indicated activator. Cells were harvested 48 h after stimulation, washed one time with PBS, and lysed in 60 μl of Passive Lysis Buffer (Promega). After 15 min of lysis, the luciferase activity in cell extracts was quantified with a Perkin Elmer EnSpire 2300 Multimode plate reader after mixing 20 μl of lysate with 100 μl of substrate (Luciferase Assay System-Promega). Relative light units (RLU) were normalized to protein content determined by Bradford assay (BioRad). Data represent average (±SD) of three technical replicates per donor. Cell viability was measured with CellTiter-Blue Cell Viability Assay (Promega).
HIV reactivation was measured by luciferase activity and cell viability by flow cytometry.

[3] = system: J-Lat cells; assay: Cell viability of J-Lat cells by flow cytometry; assay type: cell-based
Protocol: FIG. 3, Panel A, depicts results of treatment of a J-Lat cell line 5A8 with increasing concentrations (1-10000 nM) of AS1842856 for 24, 48 and 72 h. HIV-GFP mRNA reactivation was assessed by RT-qPCR and normalized to RPL13A mRNA. Data represent average SD of three independent experiments. p-value relative to the control at each time point. FIG. 3, Panel B, depicts cell viability assessed by flow cytometry at 72 h of the same experiment as in A. Cell viability was measured by gating on both the live population at the forward scatter (FSC) and side scatter (SSC) plot and then the viable cells after staining with the viability dye. FIG. 3, Panel C, depicts results of treatment of J-Lat cell lines A2 and A72 with increasing concentrations of AS1842856 for 24, 48 and 72 h. HIV-GFP reactivation (bars) and cell viability (dots) were analyzed by FACS. HIV-GFP reactivation is reported as a percentage of GFP-expressing cells (% GFP+ cells). Data represent average f SD of at least three independent experiments. FIG. 3, Panel D, depicts the same experiments as in FIG. 3, Panel C, but performed in different J-Lat cell lines 5A8, 6.3, 11.1 and 15.4. Data represent average f SD of at least three independent experiments. 10 ng/mL TNFα was used as control. FIG. 3 Panel E depicts results of treatment of J-Lat cell lines 5A8, 6.3, 11.1 and 15.4 for 72 h with increasing concentrations of both AS1842856 (Y-axis) and TNFα (X-axis) alone or in combination and analyzed by FACS. Calculation of synergy for drug combinations using the Bliss independence model applied to the HIV-GFP reactivation measured as a percentage of GFP-expressing cells (% GFP+ cells).
FIG. 10, Panels A-F depict results of a J-Lat cell line 5A8 treated with different concentrations of inhibitors. FIG. 10, Panel A, depicts results for a J-Lat cell line A58 that was treated with increasing concentrations of A-92 (GCN2 inhibitor) in combination with 1000 nM AS1842856 (72 h) or 10 ng/mL TNFα (24 h). HIV-GFP reactivation was analyzed by FACS and relativized to the control condition. Histogram plots of percent live cells for each drug treatment are shown. FIG. 10, Panel B, depicts the same experiment as in FIG. 10, Panel A, but cells were treated with increasing concentrations of PKR inhibitor (PKRi). Histogram plots representing viability are also shown. Data are represented by mean±SD of three different […]. […] FIG. 10, Panel D, depicts a J-Lat cell line A58 that was treated with increasing concentrations of Ionomycin (0.01, 0.1, 0.5, 1 μM) for 24, 48 and 72 hr. HIV-GFP reactivation and cell viability were analyzed by FACS. FIG. 10, Panel E, depicts a J-Lat cell line 5A8 that was treated for 72 h with increasing concentrations of both Fenretinide (Y-axis) and Ionomycin (X-axis) alone or in combination and analyzed by FACS. HIV-GFP reactivation is reported as a percentage of GFP-expressing cells (% GFP+ cells). FIG. 10, Panel F, depicts a J-Lat cell line 5A8 that was also treated for 72 h with increasing concentrations of both Thapsigargin (Y-axis) and Cyclosporin A (X-axis) alone or in combination and analyzed by FACS. HIV-GFP reactivation is again reported as a percentage of GFP-expressing cells (% GFP+ cells).

## CCn1cc(C(=O)O)c(=O)c2c(N)c(F)c(NC3CCCCC3)cc21 [AS1842856, 5-amino-7-(cyclohexylamino)-1-ethyl-6-fluoro-4-oxo-1,4-dihydro-quinoline-3-carboxylic acid]
[1]
  ATF4 protein levels: increased expression
[2]
  luciferase expression (HIV reactivation): reactivated luciferase expression
[3]; J-Lat 5A8, 72 h
  cell viability: No major effects
[3]; J-Lat A2 and A72
  cell viability: no effect
[3]; four J-Lat clonal cell lines
  viability: unaffected
